Among the data in ChEMBL document CHEMBL1130787, “Synthesis and in vitro antimalarial activity of sulfone endoperoxides” (Bioorg Med Chem Lett, 1998) are IC50 values, retold here.

pIC50: −log10 of the molar value.

In the test the test system is Plasmodium falciparum. The test is described as follows: In vitro antimalarial activity against chloroquine-sensitive Plasmodium falciparum NF 54. In kind it is functional, organism-based.
The pIC50 is the IC50 on a negative log10 scale, so that one unit is a factor of ten. Lower therefore signals a large IC50. In turn, `CC(=O)CC(=O)OC1(C)CCC2CC1OO[C@]2(C)CS(=O)(=O)c1ccccc1` (some centres undefined) had a pIC50 of 7.14.
Then `C[C@@H]1CC[C@H]2[C@@H](C)C(=O)O[C@@H]3O[C@@]4(C)CC[C@@H]1[C@]32OO4` [ARTEMISININ], with 8.03; and `CC1(CSc2ccccc2)OOC2CC1CC[C@@]2(C)O.CC1(CSc2ccccc2)OOC2CC1CC[C@]2(C)O` (some centres undefined), with < 5.60; and `CC1(OC(=O)C(=O)N(Cc2ccccc2)Cc2ccccc2)CCC2CC1OO[C@@]2(C)CS(=O)(=O)c1ccccc1` (some centres undefined), with 7.68.
Then `CC1(O)CCC2CC1OO[C@@]2(C)CS(=O)(=O)c1ccccc1` (some centres undefined), with 7.26; and `CCOC(=O)C(=O)OC1(C)CCC2CC1OO[C@]2(C)CS(=O)(=O)c1ccccc1` (some centres undefined), with 6.85; and `CC1(OC(=O)C(=O)N(Cc2ccccc2)Cc2ccccc2)CCC2CC1OO[C@]2(C)CS(=O)(=O)c1ccccc1` (some centres undefined), with 7.09.
Turning to `CC(=O)CC(=O)OC1(C)CCC2CC1OO[C@@]2(C)CS(=O)(=O)c1ccccc1` (some centres undefined), the pIC50 is 7.34.
`COc1ccc(COC2(C)CCC3CC2OO[C@@]3(C)CS(=O)(=O)c2ccccc2)cc1` (some centres undefined) gave a pIC50 of 7.85.
Next, `CC1(O)CCC2CC1OO[C@]2(C)CS(=O)(=O)c1ccccc1` (some centres undefined): 7.05.
For the compound `C[C@@H]1C(=O)C[C@H]2CC1OO[C@@]2(C)/C=C\c1ccc(C(F)(F)F)cc1C(F)(F)F` (single isomer, unassigned) [ARTEFLENE], the negative logarithm of the IC50 (pIC50) is 7.15.
Regarding `CC(=O)OC1(C)CCC2CC1OO[C@]2(C)CS(=O)(=O)c1ccccc1` (some centres undefined), the negative logarithm of the IC50 (pIC50) is 7.77.
Consider `CCOC(=O)C(=O)OC1(C)CCC2CC1OO[C@@]2(C)CS(=O)(=O)c1ccccc1` (some centres undefined), for which the pIC50 was 6.77.
The compound `CC(=O)OC1(C)CCC2CC1OO[C@@]2(C)CS(=O)(=O)c1ccccc1` (some centres undefined) gave a pIC50 of 7.77.
